{"source": "patent USRE48461E1", "about": "“Modulation of androgen receptor expression” (Ionis Pharmaceuticals, Inc., priority 2012, dated 2021)", "assay_type_in_all_cases": "cell-based, human", "key": {"AR mRNA": {"tested_on": "AR mRNA", "test": "AR RNA expression in C4-2 cells (complete, CSS+DHT medium)", "details": "48 hrs; for Percent expression of AR: C4-2 cells, CSS + DHT medium", "experimental": "Cells were plated at 1,000 cells per well. […] After an incubation period of 48 hrs, RNA levels of AR, PSA and TMPRSS2 were measured.\nCells were plated at 2,000 cells per well and cultured in CSS media with 1 nM DHT. […] After an incubation period of 48 hrs, RNA levels of AR, PSA and TMPRSS2 were measured."}, "AR V7 variant mRNA": {"tested_on": "AR V7 variant mRNA", "test": "AR V7 variant RNA in VCaP cells", "details": "RNAiMax, 48 hrs", "experimental": "Cells were plated at 10,000 cells per well. […] ISIS 549148 was included as a negative control. After an incubation period of 48 hrs, RNA levels of full length AR, the V7 variant, PSA and TMPRSS2 were measured.\nA separate set of cells was treated with MDV-3100 at 0.04 μM, 0.2 μM, 1.0 μM, or 5.0 μM. After an incubation period of 48 hrs, RNA levels of full length AR, the V7 variant, PSA and TMPRSS2 were measured. The data is presented in Tables 108 expressed as percent expression of gene levels compared to the untreated control.\nCells were plated at 15,000 cells per well and cultured in CSS media for 16 hours. […] ISIS 549148 was included as a negative control. After 4 hrs, 1 nM DHT was added. […] After an incubation period of 48 hrs, RNA levels of AR, PSA and TMPRSS2 were measured. […]"}, "LNCaP cells": {"tested_on": "LNCaP cells", "test": "LNCaP cell proliferation (complete or CSS+DHT medium)", "details": "5 days; for Proliferation (% untreated control) in LNCaP cells cultured in CSS + DHT medium: CSS + 1 nM DHT medium", "experimental": "After a treatment period of 5 days in complete medium or CSS+1 nM DHT medium, the proliferative capacity of the cancer cells was measured with using CellTiter 96® AQueous One Solution or CellTiter-Glo® solution Cell Proliferation kit (Promega), following the manufacturer's instructions. […] Treatment with ISIS oligonucleotides in CSS+DHT medium reduced the proliferative capacity to a greater extent than treatment with MVD-3100. The proliferative capacity of cells cultured in CSS medium without DHT is 17% of untreated control levels."}, "[1]": {"tested_on": "prostate-specific antigen (PSA) mRNA", "test": "Time-course PSA expression in C4-2B cells", "experimental": "C4-2B cells were plated at 1,000 cells per well in complete medium. […] ISIS 549148 was included as a negative control. […] After a treatment period of 8 hours, 24 hours, and 48 hours, AR expression was measured with primer probe set hAR-LTS00943. Results are presented in Tables 70-72 as percent expression of AR, relative to non-treated cells.\nExpression analysis of prostate-specific antigen (PSA) and TMPRSS2 were also analyzed. Results are presented in Tables 73-75 as percent inhibition of PSA expression and Tables 76-78 as percent inhibition of TMPRSS2 expression, relative to non-treated cells."}, "PSA mRNA": {"tested_on": "PSA mRNA", "test": "PSA expression in VCaP cells", "details": "RNAiMax, 48 hrs", "experimental": "(§1) Cells were plated at 10,000 cells per well. […] After an incubation period of 48 hrs, RNA levels of full length AR, the V7 variant, PSA and TMPRSS2 were measured.\n(§2) After an incubation period of 48 hrs, RNA levels of full length AR, the V7 variant, PSA and TMPRSS2 were measured. The data is presented in Tables 108 expressed as percent expression of gene levels compared to the untreated control.\n(§3) Cells were plated at 15,000 cells per well and cultured in CSS media for 16 hours. […] After 4 hrs, 1 nM DHT was added. […] After an incubation period of 48 hrs, RNA levels of AR, PSA and TMPRSS2 were measured."}, "TMPRSS2 mRNA": {"tested_on": "TMPRSS2 mRNA", "test": "TMPRSS2 expression in VCaP cells", "details": "RNAiMax, 48 hrs", "experimental": "as §1, §2, §3"}}}
{"sequence": "GGCTACTACGCCGTCA (3-10-3 (S)-cEt gapmer, chemistry not fully specified) [ISIS 549148, reference compound]", "values": [{"measurement": "Percent expression of AR", "setting": "AR mRNA; 0.04 μM", "result": 101, "unit": "%"}, {"measurement": "Percent expression of AR", "setting": "AR mRNA; 0.2 μM", "result": 101, "unit": "%"}, {"measurement": "Percent expression of AR", "setting": "AR mRNA; 1 μM", "result": 118, "unit": "%"}, {"measurement": "Percent expression of AR in C4-2 cells cultured in complete medium", "setting": "AR mRNA; 0.04 μM", "result": 89, "unit": "%"}, {"measurement": "Percent expression of AR in C4-2 cells cultured in complete medium", "setting": "AR mRNA; 0.2 μM", "result": 90, "unit": "%"}, {"measurement": "Percent expression of AR in C4-2 cells cultured in complete medium", "setting": "AR mRNA; 1 μM", "result": 84, "unit": "%"}, {"measurement": "Percent expression of AR in C4-2 cells cultured in complete medium", "setting": "AR mRNA; 5.0 μM", "result": 86, "unit": "%"}, {"measurement": "Percent inhibition of AR V7 variant", "setting": "AR V7 variant mRNA; CSS + DHT medium, 1.34 nM", "result": 12, "unit": "%"}, {"measurement": "Percent inhibition of AR V7 variant", "setting": "AR V7 variant mRNA; CSS + DHT medium, 4.0 nM", "result": 0, "unit": "%"}, {"measurement": "Percent inhibition of AR V7 variant", "setting": "AR V7 variant mRNA; CSS + DHT medium, 13.4 nM", "result": 0, "unit": "%"}, {"measurement": "Percent inhibition of AR V7 variant", "setting": "AR V7 variant mRNA; CSS + DHT medium, 40 nM", "result": 5, "unit": "%"}, {"measurement": "Percent inhibition of AR V7 variant", "setting": "AR V7 variant mRNA; complete medium, 1.34 nM", "result": 0, "unit": "%"}, {"measurement": "Percent inhibition of AR V7 variant", "setting": "AR V7 variant mRNA; complete medium, 4.0 nM", "result": 8, "unit": "%"}, {"measurement": "Percent inhibition of AR V7 variant", "setting": "AR V7 variant mRNA; complete medium, 13.4 nM", "result": 0, "unit": "%"}, {"measurement": "Percent inhibition of AR V7 variant", "setting": "AR V7 variant mRNA; complete medium, 40 nM", "result": 14, "unit": "%"}, {"measurement": "Proliferation (% untreated control) in LNCaP cells cultured in CSS + DHT medium", "setting": "LNCaP cells; 0.04 μM", "result": 112, "unit": "% untreated control"}, {"measurement": "Proliferation (% untreated control) in LNCaP cells cultured in CSS + DHT medium", "setting": "LNCaP cells; 0.2 μM", "result": 96, "unit": "% untreated control"}, {"measurement": "Proliferation (% untreated control) in LNCaP cells cultured in CSS + DHT medium", "setting": "LNCaP cells; 1 μM", "result": 95, "unit": "% untreated control"}, {"measurement": "Proliferation (% untreated control) in LNCaP cells cultured in CSS + DHT medium", "setting": "LNCaP cells; 5.0 μM", "result": 89, "unit": "% untreated control"}, {"measurement": "Proliferation (% untreated control) in LNCaP cells cultured in complete medium", "setting": "LNCaP cells; 0.04 μM", "result": 101, "unit": "% untreated control"}, {"measurement": "Proliferation (% untreated control) in LNCaP cells cultured in complete medium", "setting": "LNCaP cells; 0.2 μM", "result": 95, "unit": "% untreated control"}, {"measurement": "Proliferation (% untreated control) in LNCaP cells cultured in complete medium", "setting": "LNCaP cells; 1 μM", "result": 94, "unit": "% untreated control"}, {"measurement": "Proliferation (% untreated control) in LNCaP cells cultured in complete medium", "setting": "LNCaP cells; 5.0 μM", "result": 110, "unit": "% untreated control"}, {"measurement": "Percent inhibition of PSA expression compared to the control group in 8 hours", "setting": "[1]; 0.04 μM", "result": 1, "unit": "%"}, {"measurement": "Percent inhibition of PSA expression compared to the control group in 24 hours", "setting": "[1]; 0.04 μM", "result": 22, "unit": "%"}, {"measurement": "Percent inhibition of PSA expression compared to the control group in 48 hours", "setting": "[1]; 0.04 μM", "result": 2, "unit": "%"}, {"measurement": "Percent inhibition of PSA expression compared to the control group in 8 hours", "setting": "[1]; 0.2 μM", "result": 8, "unit": "%"}, {"measurement": "Percent inhibition of PSA expression compared to the control group in 24 hours", "setting": "[1]; 0.2 μM", "result": 13, "unit": "%"}, {"measurement": "Percent inhibition of PSA expression compared to the control group in 48 hours", "setting": "[1]; 0.2 μM", "result": 0, "unit": "%"}, {"measurement": "Percent inhibition of PSA expression compared to the control group in 8 hours", "setting": "[1]; 1 μM", "result": 8, "unit": "%"}, {"measurement": "Percent inhibition of PSA expression compared to the control group in 24 hours", "setting": "[1]; 1 μM", "result": 16, "unit": "%"}, {"measurement": "Percent inhibition of PSA expression compared to the control group in 48 hours", "setting": "[1]; 1 μM", "result": 18, "unit": "%"}, {"measurement": "Percent inhibition of PSA expression compared to the control group in 8 hours", "setting": "[1]; 5.0 μM", "result": 0, "unit": "%"}, {"measurement": "Percent inhibition of PSA expression compared to the control group in 24 hours", "setting": "[1]; 5.0 μM", "result": 6, "unit": "%"}, {"measurement": "Percent inhibition of PSA expression compared to the control group in 48 hours", "setting": "[1]; 5.0 μM", "result": 10, "unit": "%"}, {"measurement": "Percent inhibition of PSA expression", "setting": "PSA mRNA; CSS + DHT medium, 1.34 nM", "result": 0, "unit": "%"}, {"measurement": "Percent inhibition of PSA expression", "setting": "PSA mRNA; CSS + DHT medium, 4.0 nM", "result": 3, "unit": "%"}, {"measurement": "Percent inhibition of PSA expression", "setting": "PSA mRNA; CSS + DHT medium, 13.4 nM", "result": 9, "unit": "%"}, {"measurement": "Percent inhibition of PSA expression", "setting": "PSA mRNA; CSS + DHT medium, 40 nM", "result": 0, "unit": "%"}, {"measurement": "Percent inhibition of PSA expression", "setting": "PSA mRNA; complete medium, 1.34 nM", "result": 2, "unit": "%"}, {"measurement": "Percent inhibition of PSA expression", "setting": "PSA mRNA; complete medium, 4.0 nM", "result": 0, "unit": "%"}, {"measurement": "Percent inhibition of PSA expression", "setting": "PSA mRNA; complete medium, 13.4 nM", "result": 0, "unit": "%"}, {"measurement": "Percent inhibition of PSA expression", "setting": "PSA mRNA; complete medium, 40 nM", "result": 20, "unit": "%"}, {"measurement": "Percent inhibition of TMPRSS2 expression", "setting": "TMPRSS2 mRNA; CSS + DHT medium, 1.34 nM", "result": 0, "unit": "%"}, {"measurement": "Percent inhibition of TMPRSS2 expression", "setting": "TMPRSS2 mRNA; CSS + DHT medium, 4.0 nM", "result": 0, "unit": "%"}, {"measurement": "Percent inhibition of TMPRSS2 expression", "setting": "TMPRSS2 mRNA; CSS + DHT medium, 13.4 nM", "result": 0, "unit": "%"}, {"measurement": "Percent inhibition of TMPRSS2 expression", "setting": "TMPRSS2 mRNA; CSS + DHT medium, 40 nM", "result": 0, "unit": "%"}, {"measurement": "Percent inhibition of TMPRSS2 expression", "setting": "TMPRSS2 mRNA; complete medium, 1.34 nM", "result": 0, "unit": "%"}, {"measurement": "Percent inhibition of TMPRSS2 expression", "setting": "TMPRSS2 mRNA; complete medium, 4.0 nM", "result": 0, "unit": "%"}, {"measurement": "Percent inhibition of TMPRSS2 expression", "setting": "TMPRSS2 mRNA; complete medium, 13.4 nM", "result": 0, "unit": "%"}, {"measurement": "Percent inhibition of TMPRSS2 expression", "setting": "TMPRSS2 mRNA; complete medium, 40 nM", "result": 0, "unit": "%"}]}
